Measured values reported in paper PMC2751816, “Functional, Non-Clonal IgM^a-Restricted B Cell Receptor Interactions with the HIV-1 Envelope gp41 Membrane Proximal External Region” (PLoS ONE, 2009).
Entries after “also recorded” stand apart in the source; their conditions may differ.

How the values were obtained:
[1] = system: phosphorylated Erk in BALB/c splenic B cells; assay: Intracellular FACS of phosphorylated Erk1/2; type: cell-based, mouse (BALB/c); conditions: naïve BALB/c splenocytes; gated on ligated B cells; Fig. 8B
Experimental: Splenocyte suspensions were incubated at 37°C for various times with either APC-labeled F(ab)'2 anti-IgM (Jackson ImmunoResearch) or APC-labeled gp41 MPER tetramers. Stimulations were stopped by the addition of PhosFlow Lyse/Fix buffer (BD) and incubation for 10 min at 37°C. Cells were stained with B220-FITC prior to permeabilization with PhosFlow Perm Buffer III (BD). Permeabilized cells were stained with a PE-labeled Ab to Erk1 and Erk2 (BD), according to the manufacturer's instructions. Cells were fixed with 2% paraformaldehyde, and all data were collected and analyzed as done for standard flow cytometry.

BALB/c splenic B cells = assay: Alanine-substituted gp41 MPER mutant tetramers: binding to BALB/c splenic B cells (flow cytometry); type: cell-based, mouse (BALB/c); conditions: APC mutant tetramers 100 ng/10^6 cells, MFI; average of two experiments; Fig. 7B middle
Description: Figure 7 Mapping of gp41 MPER residues required for high frequency interactions with IgM^a. A) List of peptides (annotated numerically according to position of substitution) used to make mutant tetramers with sequential alanine substitutions (in red) along the gp41 MPER region containing the nominal 2F5 epitope. B) Comparison of gp41 MPER residues required for binding bnAb 2F5 with those required for allotypic interactions with IgM. Shown is relative binding of mutant tetramers with either 2F5 (upper panel), naïve BALB/c total splenic B cells (middle panel), and 9G8 (lower panel). Tetramers with corresponding substituted positions in the 2F5 epitope are indicated on the x-axis, with those in blue and red representing mutated residues with >3 and >10 fold binding reductions, respectively. For measuring mutant tetramer binding to 2F5, unlabeled versions of tetramers were used in SPR analysis, as described in Materials and Methods. […]
N-biotinylated, linker/spacer-containing peptides used to make tetramers are detailed in Table S4 and Fig. 7A. […] Purified tetramer preparations were determined using the Micro BSA protein assay kit (Pierce Biotechnology).
(§1) FACS staining of single cell suspensions (≥2×10^6) was conducted using pre-mixed combinations of fluorochrome-labeled Abs and APC-conjugated B cell tetramers at empirically-determined optimal concentrations. […]

[2] = system: splenic B cells, BALB/c congenic (CB17) (IgH^b); assay: Flow cytometry: tetramer staining of splenic B cells from BALB/c congenic CB17 (IgH^b) mice; type: cell-based, mouse (CB17); conditions: BALB/c mice homozygous for Igh^b; Fig. 5
Experimental: (§2) N-biotinylated, linker/spacer-containing peptides used to make tetramers are detailed in Table S4 and Fig. 7A. Peptides were synthesized and purified using reverse-phase HPLC (Primm Biotechnology). To produce tetramerized forms of each peptides, 200 µM peptide and 6 µM APC-labeled streptavadin (SA) were combined at equal volumes, and mixtures were incubated at 4°C for 4 h. Unbound peptide was removed from peptide-APC complexes by centrifugal filtration using an Amicon Centriprep YM30 column (Millipore Corporation). Purified tetramer preparations were determined using the Micro BSA protein assay kit (Pierce Biotechnology).
Female C57BL/6, BALB/c, B6Igh^a, and CB17 (BALBc Igh^b) inbred mouse strains (8–12 wks of age) were purchased from Charles River Laboratories. All mice were housed in the Duke University Animal Facility in a pathogen-free environment with 12 h light/dark cycles at 20–25°C under AALAC guidelines and in accordance with all Institutional Animal Care and Use Committee and Duke University Institutional Biosafety Committee-approved animal protocols. […]
as §1

[3] = system: BALB/c B cells (gp41 MPER tetramer binding); assay: Cold inhibition of APC-labeled gp41 MPER tetramer binding by unlabeled tetramers; type: cell-based, mouse (BALB/c)
Experimental: (§3) FACS staining of single cell suspensions (≥2×10^6) was conducted using pre-mixed combinations of fluorochrome-labeled Abs and APC-conjugated B cell tetramers at empirically-determined optimal concentrations. All Abs were from BD unless otherwise stated. Primary antibodies used were: PerCP anti-B220, FITC anti-IgD, FITC, PE or PE-Cy7 anti-IgM, PE anti-CD5, FITC anti-CD11b, PE-Cy7 anti-CD19, FITC anti-CD21, PE-Cy7 anti-CD23 (eBiosciences), and PE-Cy7 anti-CD93 (eBiosciences). Other reagents included biotinylated Abs against dump channel markers: Thy1 (Abcam), F4/80 (Abcam), CD11c, Gr-1, TER-119, and NK-1.1, secondary staining SA-Texas Red conjugate; v-amine live/dead violet dye (Molecular Probes), and Fc block (anti-CD16/32).
(§4) Staining was conducted at 4°C in several sequential steps in FACS staining buffer (1X PBS with 2% FCS, 0.1% NaN3), washing twice between steps. Cells were first incubated with v-amine live/dead dye for 15 min, then stained with APC-labeled tetramers for 30 min (and in some experiments, cold tetramer was incubated at 10 fold molar excess for 1 h, prior to staining with APC-labeled tetramers). Cells were then stained with Fc block, followed by incubation with combinations of primary Abs, and secondary staining with SA-Texas Red, each for 30 min. Data (≥2.5×10^5 events/sample) were acquired using an LSRII flow cytometer and Cell Quest software (BD Immunocytometry systems). FACS Analysis was performed using FlowJo software (Tree Star). For analysis, cells were gated in the following order: single cells were gated based on fsc height vs. fsc area+ssc height vs. ssc profiles, lymphocytes were gated on fsc and ssc profile, residual dead cells were excluded by negative gating with v-amine live/dead dye, and irrelevant non-B cells were excluded by negative gating with dump markers.

[4] = system: naïve splenic C57BL/6 B cells; assay: Flow cytometry: APC-labeled tetramer staining of C57BL/6 splenic B cells; type: cell-based, mouse (C57BL/6)
Experimental: as §2, §3
as §4, with “For analysis, cells were gated in the following order: single cells were gated based on fsc height vs. fsc area+ssc height vs. ssc profiles, lymphocytes were gated on fsc and ssc profile, residual dead cells were excluded by negative gating with v-amine live/dead dye, and irrelevant non-B cells were excluded by negative gating with dump markers.” left out

MZ and B1 B cells = conditions: gp41 MPER-immunized BALB/c mice; ref L. Verkoczy and B. Haynes, unpublished results; cited from earlier work
Description: Classical B-cell sAgs, like the S. aureus protein A subunit (SpA), can bind to and activate large populations of B cells, may cause selective deletion of MZ and B1 B cell subsets, and bind to B cells based on VH family usage, [52]. Similarly, sAg interactions of HIV-1 gp120 with human B cells have been described (reviewed in [37] and [53]–[56]), resulting in a VH3-skewed repertoire in HIV-1 infected individuals (reviewed in [57] and [58]–[60]). […] In this context, one obvious question arising from our studies is what are the physiological consequences of weak and/or incomplete signaling by gp41 MPER (Fig. 8). One possibility is that incomplete activation of B cells by low affinity MPER binding could suppress the T-independent component of MPER Ab respon ...

Sequence: QQEKNEQELLELDKWASLWN [gp41 MPER tetramer, (residues 659–678 of the HIV-1 envelope)]
- Erk phosphorylation (in words) [1]: detectable, but dampened induction of phosphorylated Erk; also recorded: peak gp41 MPER-induced Erk phosphorylation persisted at 30 min; also recorded: the entire population of gp41 MPER-gated B cells showed modest Erk activation
- gp41 MPER residues required for binding (in words) (BALB/c splenic B cells): mapped to 660Q and a 677 W, both located outside the core 2F5 epitope
- gp41 MPER binding in congenic mice (in words) [2]: lost gp41 MPER binding
- inhibition of APC-labeled gp41 MPER tetramer binding ([3]; pre-incubation with unlabeled competitor at 10-fold molar excess, 100 ng/10^6 splenocytes): > 90%
- inhibition of APC-labeled gp41 MPER tetramer binding (in words) ([3]; unlabeled competitor tetramer pre-incubated, Fig. 4A,B, average of three experiments (4B)): Dose-dependent inhibition of APC-labeled gp41 MPER peptide binding was observed
- MFI binding pattern (in words) ([4]; C57BL/6 B cells, Fig. 1A, 1C): gp41 MPER-reactive C57BL/6 B cells scattered further out across the APC channel
- gp41 MPER reactivity among B cell subsets (in words) ([4]; C57BL/6 MZ and B1a B cells, Table S2): did not reveal increased levels of MPER binding by MZ and B1a B cells
- percentage of tetramer-reactive B cells ([4]; total splenic B cells (CD19^+), naïve C57BL/6, APC tetramer 100 ng/10^6 splenocytes, above background without tetramer, Fig. 1A representative histogram): 0.1–0.3%
- B cell subset deletion after immunization (in words) (MZ and B1 B cells): partial deletion of MZ and B1 B cells in gp41 MPER-immunized BALB/c mice; also recorded: reduced MZ B cell populations in gp41 MPER-immunized BALB/c mice
